Test results: the supplement of paper PMC8967900

Columns and labels:
Experiment in all cases: selective drug sensitivity score (sDSS, relative to normal bone marrow) (sDSS (score)); higher = more potent and effective on the cell line relative to normal bone marrow cells
Conditions in all cases: 72 h
P30-OHKUBO = test system: P30-OHKUBO
KASUMI-2 = test system: KASUMI-2
KOPN-8 = test system: KOPN-8
COG-LL-319h = test system: COG-LL-319h
COG-LL-317 = test system: COG-LL-317
HAL-01 = test system: HAL-01
COG-LL-394h = test system: COG-LL-394h
JURKAT = test system: JURKAT
PEER = test system: PEER
NALM-6 = test system: NALM-6
MOLT-4 = test system: MOLT-4
MOLT-14 = test system: MOLT-14
NALM-16 = test system: NALM-16
COG-LL-402h = test system: COG-LL-402h
RCH-ACV = test system: RCH-ACV
CCRF-CEM = test system: CCRF-CEM
MHH-CALL-3 = test system: MHH-CALL-3
RPMI-8402 = test system: RPMI-8402
697 = test system: 697
NALL-1 = test system: NALL-1
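Also: ALL cell lines in 384-well plates, five doses spanning 10,000-fold, each plate scaled between vehicle and 100 µmol/L benzalkonium chloride controls, sDSS an adapted area-under-curve metric.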

SMILES	selective drug sensitivity score (P30-OHKUBO)	selective drug sensitivity score (KASUMI-2)	selective drug sensitivity score (KOPN-8)	selective drug sensitivity score (COG-LL-319h)	selective drug sensitivity score (COG-LL-317)	selective drug sensitivity score (HAL-01)	selective drug sensitivity score (COG-LL-394h)	selective drug sensitivity score (JURKAT)	selective drug sensitivity score (PEER)	selective drug sensitivity score (NALM-6)	selective drug sensitivity score (MOLT-4)	selective drug sensitivity score (MOLT-14)	selective drug sensitivity score (NALM-16)	selective drug sensitivity score (COG-LL-402h)	selective drug sensitivity score (RCH-ACV)	selective drug sensitivity score (CCRF-CEM)	selective drug sensitivity score (MHH-CALL-3)	selective drug sensitivity score (RPMI-8402)	selective drug sensitivity score 697	selective drug sensitivity score (NALL-1)
COc1cc([C@@H]2c3cc4c(cc3[C@@H](O[C@@H]3O[C@@H]5CO[C@@H](c6cccs6)O[C@H]5[C@H](O)[C@H]3O)[C@H]3COC(=O)[C@H]23)OCO4)cc(OC)c1O [Teniposide] (top concentration 10000 nM)	0	2.4	0	0	0	0	0	0	0	0	0	0	0	0.1	0	0	0	0	0	0
O=C(O)C(=O)O.[NH-][C@@H]1CCCC[C@H]1[NH-].[Pt+2] [Oxaliplatin] (top concentration 100000 nM)	14.1	12.8	16.9	15.6	17.2	15.3	8.32	5.52	0.62	6.12	12.4	9.22	-1.48	12.9	11.6	8.22	10.3	8.02	16	2.92
O[C@H]1CC[C@H](Nc2ncc3nc(Nc4c(F)cc(F)cc4F)n([C@H]4CCOC4)c3n2)CC1 [Tanzisertib] (top concentration 10000 nM)	0	0	1.4	0	0	0	0	0	0	0	0	0	1.2	0	0	0	0	0	0	0
CC[C@@H](C(=O)[C@@H](C)[C@@H](O)[C@H](C)[C@@H]1O[C@@H]([C@@H](CC)C(=O)O)CC[C@@H]1C)[C@H]1O[C@]2(C=C[C@@H](O)[C@]3(CC[C@@](C)([C@H]4CC[C@](O)(CC)[C@H](C)O4)O3)O2)[C@H](C)C[C@@H]1C [Salinomycin] (top concentration 50000 nM)	-7.8	-23.2	-8.4	-0.8	-2.2	5.6	3.2	3.1	10.5	-4.9	-5.3	6.3	0.3	-4	-15.4	2	-3.3	10.1	-0.9	2.2
Oc1nc(-c2ccc(C(F)(F)F)cc2)nc2c1CSCC2 [XAV939] (top concentration 10000 nM)	-0.14	1.46	0.66	-0.14	-0.14	-0.14	0.36	-0.14	0.96	-0.14	-0.14	-0.14	-0.14	0.16	0.06	-0.14	-0.14	-0.14	-0.14	-0.14
Nc1nc(OCc2cc(Br)cs2)c2[nH]cnc2n1 [Lomeguatrib] (top concentration 10000 nM)	0	0	0	0	0	0	0	0	0	0	0	0	0	0	0.8	0	0	0	0.4	0
Cc1cc(OCc2nnc(SC3CCCC3)n2-c2cccnc2)ccc1-c1ccc(S(C)(=O)=O)cc1 [NMS-873] (top concentration 10000 nM)	4.66	4.26	4.06	10.3	0.16	1.06	14.6	26.5	22.9	7.36	17.4	7.16	2.86	2.56	11.7	1.46	6.06	21.3	14.1	3.26
CS(=O)(=O)N1CCN(Cc2cc3nc(-c4cccc5[nH]ncc45)nc(N4CCOCC4)c3s2)CC1 [Pictilisib] (top concentration 10000 nM)	13	8.46	14.8	5.56	-0.94	14.4	-0.74	0.36	-2.24	12.9	9.36	-2.04	4.66	12.9	26.2	5.36	10.6	6.26	7.36	-0.64
CC(C)(C#N)c1cc(Cn2cncn2)cc(C(C)(C)C#N)c1 [Anastrozole] (top concentration 10000 nM)	0	0	0	0	0	0	0	0	0	0	0	0	0	0	0	0	0	0	0	0
O=C(c1cc(Cc2n[nH]c(=O)c3ccccc23)ccc1F)N1CCN(C(=O)C2CC2)CC1 [Olaparib] (top concentration 10000 nM)	2.98	4.78	9.68	11.7	13	4.88	-1.32	1.58	1.28	1.48	4.18	10.4	-3.42	4.38	7.38	3.78	21.9	-0.02	6.78	1.28
Nc1nc(F)nc2c1ncn2[C@@H]1O[C@H](CO)[C@@H](O)[C@@H]1O [Fludarabine] (top concentration 10000 nM)	7.7	5.3	8.4	8.4	3.3	4	-10.6	-5.5	-9.3	4.6	-1.9	4.3	-6	8	5.9	2.3	7.5	-3.6	7.3	2.3
Nc1ncn([C@H]2C[C@H](O)[C@@H](CO)O2)c(=O)n1 [Decitabine] (top concentration 10000 nM)	4.64	-2.26	10.2	10.7	14.9	-1.76	-6.06	4.04	2.94	-3.06	-0.96	0.44	-2.96	3.34	10.1	4.44	2.34	1.24	17.5	-5.96
CNC(=O)CN1CCC(Oc2cc3c(Nc4cccc(Cl)c4F)ncnc3cc2OC)CC1 [Sapitinib] (top concentration 1000 nM)	0	0	0	0	0	0	0	0	0	0	0	0	0	0	0	0	0.1	0	0	0
Nc1ccn([C@@H]2O[C@H](CO)[C@@H](O)[C@@H]2O)c(=O)n1 [Cytarabine] (top concentration 10000 nM)	26.2	16.6	20.9	18.8	27.2	21.8	-10	17.9	12.2	25.2	19	25.6	8.8	26.9	28.1	25.7	15.8	18.6	27.7	10.6
CC(C)Oc1ccc(C(=O)N[C@H](CNC(=O)CN(C)C)Cc2ccc(-c3cn4cccc([C@H](C)O)c4n3)cc2)cc1Cl (top concentration 10000 nM)	12.8	6.38	14.2	14.3	16.6	1.98	-0.72	13.6	19.9	7.68	18.2	17.4	1.68	10.6	18	16.2	-9.32	9.28	19.9	9.88
CCc1c2c(nc3ccc(O)cc13)-c1cc3c(c(=O)n1C2)COC(=O)[C@]3(O)CC [SN-38] (top concentration 10000 nM)	24.6	18.8	28	26.7	27.6	21.8	13.8	22.7	12.8	22.1	28.2	28	13.4	21.1	27.6	27.6	16.2	25.4	22.7	24.4
CCOC(=O)C1=CCCC[C@H]1S(=O)(=O)Nc1ccc(F)cc1Cl [Resatorvid] (top concentration 10000 nM)	0	0	0.2	0	0	0	0	0	0	0	0	0	0	0.4	0	0	0	0	0	0
CCn1c(-c2nonc2N)nc2cnc(Oc3cccc(NC(=O)c4ccc(OCCN5CCOCC5)cc4)c3)cc21 (top concentration 10000 nM)	10.9	14.3	11.3	17.5	7.46	9.96	1.56	3.76	16.6	6.76	1.86	2.46	-5.44	7.66	17.1	15.8	-2.34	7.66	18.3	8.46
